Test results published in ChEMBL document CHEMBL1130713, “Development of 2,2-dimethylchromanol cysteinyl LT1 receptor antagonists” (Bioorg Med Chem Lett, 1998).
pIC50, pKi: −log10 of the molar value.

Key:
[1] = test system: Rattus norvegicus; assay: Hepatic clearance after intravenous administration was evaluated in rat; type: ADME, organism-based, Liver; settings: in vivo
[2] = test system: Cavia porcellus; assay: Compound was tested for its ability to block antigen induced airway obstruction in guinea pig at dose 1 mg/kg at 1 hr; type: functional
[3] = Half-life was evaluated in plasma of rat; type: ADME, organism-based
[4] = Volume of distribution after intravenous administration was evaluated in rat; type: ADME, organism-based; settings: in vivo, read-out: Vdss
[5] = target: T1, Cysteinyl leukotriene receptor 1 (Cavia porcellus, UniProt Q2NNR5); assay: Antagonism of Cysteinyl leukotriene receptor 1 from guinea pig lung membranes; type: functional, tissue-based
T1 sequence (Q2NNR5 whole entry): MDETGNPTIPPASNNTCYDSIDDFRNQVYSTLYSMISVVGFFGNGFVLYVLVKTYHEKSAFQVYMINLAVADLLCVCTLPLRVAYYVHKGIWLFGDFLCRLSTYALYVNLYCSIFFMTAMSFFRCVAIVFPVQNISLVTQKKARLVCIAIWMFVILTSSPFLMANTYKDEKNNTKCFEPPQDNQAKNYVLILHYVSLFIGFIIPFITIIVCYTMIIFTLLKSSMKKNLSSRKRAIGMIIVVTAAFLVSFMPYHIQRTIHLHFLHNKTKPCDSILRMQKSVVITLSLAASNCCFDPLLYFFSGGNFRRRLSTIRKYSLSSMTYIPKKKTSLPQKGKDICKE

[6] = species: Homo sapiens; assay: Compound was tested for its ability to inhibit calcium influx in human U937 cells; type: functional, cell-based; settings: U-937
[7] = test system: Cavia porcellus; assay: Compound was tested for its ability to block antigen induced airway obstruction in guinea pig at dose 1 mg/kg at 2 hr; type: functional

| Structure (SMILES) | Clp [1] [mL/min/kg] | half-life [3] [h] | Vd [4] [L/kg] | pKi [5] | pIC50 [6] | inhibition in vivo at 1 mg/kg [2] [%] | inhibition in vivo at 1 mg/kg [7] [%] |
| --- | --- | --- | --- | --- | --- | --- | --- |
| O=C(Nc1cccc2c(=O)cc(-c3nnn[nH]3)oc12)c1ccc(OCCCCc2ccccc2)cc1 |  |  |  |  | 9.00 | 50.1 |  |
| CC1(C)Oc2ccc(OCc3nc4cc(F)c(F)cc4s3)cc2[C@H](O)[C@@H]1Cc1cccc(NS(=O)(=O)C(F)(F)F)c1 |  |  |  | 8.15 | 8.70 |  | 45.8 |
| O=C(O)c1cccc(C[C@@H]2COc3ccc(OCc4nc5cc(F)ccc5s4)cc3[C@@H]2O)c1 | 3.3 | 1.3 | 0.4 | 7.85 | 6.51 |  | 56 |
| COc1cc(C(=O)NS(=O)(=O)c2ccccc2C)ccc1Cc1cn(C)c2ccc(NC(=O)OC3CCCC3)cc12 [ZAFIRLUKAST] |  |  |  |  | 9.00 |  | 51.6 |

More lines, in order of rising pIC50 [6], values ahead:

| Clp [1] [mL/min/kg] | half-life [3] [h] | Vd [4] [L/kg] | pKi [5] | pIC50 [6] | Structure (SMILES) | inhibition in vivo at 1 mg/kg [2] [%] | inhibition in vivo at 1 mg/kg [7] [%] |
| --- | --- | --- | --- | --- | --- | --- | --- |
|  |  |  | 8.40 | 7.77 | CC1(C)Oc2ccc(OCc3nc4cc(F)c(F)cc4s3)cc2[C@H](O)[C@@H]1Cc1cc(NS(=O)(=O)C(F)(F)F)ccc1Cl |  |  |
|  |  |  |  | 8.10 | C[C@H]1Oc2ccc(OCc3nc4cc(F)ccc4s3)cc2[C@H](O)[C@@H]1Cc1cccc(NS(=O)(=O)C(F)(F)F)c1 | 66.5 |  |
| 6.7 | 3.6 | 1.6 | 8.40 | 9.30 | COc1ccc(NS(=O)(=O)C(F)(F)F)cc1C[C@H]1[C@@H](O)c2cc(OCc3ccc4ccc(Cl)cc4n3)ccc2OC1(C)C | 57.9 |  |
| 16 | 3.9 | 3.8 | 8.70 | 9.52 | COc1ccc(NS(=O)(=O)C(F)(F)F)cc1C[C@H]1[C@@H](O)c2cc(OCc3nc4cc(F)c(F)cc4s3)ccc2OC1(C)C |  | 37.8 |
|  |  |  | 8.30 | 9.70 | COc1ccc(NS(=O)(=O)C(F)(F)F)cc1C[C@H]1[C@@H](O)c2cc(/C=C/c3ccc4ccc(Cl)cc4n3)ccc2OC1(C)C |  | 40.8 |
